Results from ChEMBL document CHEMBL1201862, “PubChem BioAssay data set” (2004).
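Dose response: 5 concentrations. Exposure: 48 h. Format: 96-well plates. Endpoint: linear interpolation; highest concentration if not reached. The concentration for 50% growth inhibition is given as GI50.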 Active and inactive are the calls of the source. Rule as the data show it: active = GI50 up to about 1.1 µM and inactive = higher.

Columns and labels:
Experiment in all cases: growth of human tumour cells (NCI), 48 h
SF-268 = test system: SF-268
LOX IMVI = test system: LOX IMVI
HOP-92 = test system: HOP-92
U-251 = test system: U-251
OVCAR-8 = test system: OVCAR-8
SF-295 = test system: SF-295
NCI-H522 = test system: NCI-H522
Hs-578T = test system: Hs-578T
HCT-116 = test system: HCT-116
MDA-MB-231 = test system: MDA-MB-231
786-0 = test system: 786-0
PC-3 = test system: PC-3
EKVX = test system: EKVX
T47D = test system: T47D
RXF 393 = test system: RXF 393
Malme-3M = test system: Malme-3M
TK-10 = test system: TK-10
SNB-75 = test system: SNB-75
COLO 205 = test system: COLO 205
UO-31 = test system: UO-31

Measured: GI50

CC(C)c1cc(C(C)C)c(P2(=O)CC3C(Cl)(Cl)C3(C)C2)c(C(C)C)c1 (stereo not given)
inactive: SF-268 12.1 µM | LOX IMVI 6.68 µM | HOP-92 12.2 µM | U-251 8.67 µM | OVCAR-8 7.67 µM | SF-295 7.31 µM | NCI-H522 2.09 µM | Hs-578T 17.3 µM | HCT-116 7.29 µM | MDA-MB-231 11.4 µM | 786-0 6.22 µM | PC-3 6.7 µM | EKVX 15.8 µM | T47D 6.44 µM | RXF 393 12.9 µM | Malme-3M 17.5 µM | TK-10 12.1 µM | SNB-75 11.6 µM | COLO 205 11.7 µM | UO-31 1.86 µM

C=CC1=C(C)c2cc3[nH]c(c4c5nc(cc6[nH]c(cc1n2)c(C=O)c6CC)C(C)=C5C(=O)[C@@H]4C(=O)OC)[C@@H](CCC(=O)O)[C@@H]3C
inactive: SF-268 24.4 µM | LOX IMVI > 100 µM | HOP-92 > 100 µM | U-251 9.25 µM | OVCAR-8 53.3 µM | SF-295 45 µM | NCI-H522 30.8 µM | Hs-578T > 100 µM | HCT-116 65.5 µM | MDA-MB-231 28 µM | 786-0 > 100 µM | PC-3 63.4 µM | EKVX > 100 µM | T47D 20.7 µM | RXF 393 1.79 µM | Malme-3M > 100 µM | TK-10 > 100 µM | SNB-75 2.54 µM | COLO 205 95.7 µM | UO-31 32.7 µM

CCOC(=O)c1cn2c(n1)sc1cc(Cl)cc(Cl)c12
inactive: SF-268 > 100 µM | LOX IMVI > 100 µM | HOP-92 > 100 µM | U-251 > 100 µM | OVCAR-8 > 100 µM | SF-295 > 100 µM | NCI-H522 > 100 µM | Hs-578T > 100 µM | HCT-116 > 100 µM | MDA-MB-231 > 100 µM | 786-0 > 100 µM | PC-3 > 100 µM | EKVX > 100 µM | T47D > 100 µM | RXF 393 > 100 µM | Malme-3M > 100 µM | TK-10 > 100 µM | SNB-75 > 100 µM | COLO 205 > 100 µM | UO-31 > 100 µM

COc1ccc(CCc2ccc(O)c(C(=O)O)c2)cc1OC
inactive: SF-268 > 100 µM | LOX IMVI 7.5 µM | HOP-92 > 100 µM | U-251 > 100 µM | OVCAR-8 > 100 µM | SF-295 > 100 µM | NCI-H522 > 100 µM | Hs-578T > 100 µM | HCT-116 65.5 µM | MDA-MB-231 57.8 µM | 786-0 > 100 µM | PC-3 > 100 µM | EKVX > 100 µM | T47D > 100 µM | RXF 393 63.5 µM | Malme-3M > 100 µM | TK-10 > 100 µM | SNB-75 79.6 µM | COLO 205 > 100 µM | UO-31 > 100 µM

O=C1O[C@H]2C3C4CCC(C4[C@@H]2I)[C@H]13 (stereo not given in full)
inactive: SF-268 > 100 µM | LOX IMVI > 100 µM | HOP-92 > 100 µM | U-251 > 100 µM | OVCAR-8 > 100 µM | SF-295 > 100 µM | NCI-H522 > 100 µM | Hs-578T > 100 µM | HCT-116 > 100 µM | MDA-MB-231 > 100 µM | 786-0 > 100 µM | PC-3 > 100 µM | EKVX > 100 µM | T47D > 100 µM | RXF 393 > 100 µM | Malme-3M > 100 µM | TK-10 > 100 µM | SNB-75 60.3 µM | COLO 205 > 100 µM | UO-31 > 100 µM

Cc1ccc(/C=N/Nc2ccccn2)s1
inactive: SF-268 > 64.6 µM | LOX IMVI > 50.4 µM | HOP-92 > 100 µM | U-251 > 100 µM | OVCAR-8 > 100 µM | SF-295 > 100 µM | NCI-H522 12.5 µM | Hs-578T > 100 µM | HCT-116 > 44.7 µM | MDA-MB-231 > 41.1 µM | 786-0 > 54.7 µM | PC-3 > 100 µM | EKVX > 72.8 µM | T47D > 57 µM | RXF 393 > 100 µM | Malme-3M > 100 µM | TK-10 > 31.6 µM | SNB-75 36.7 µM | COLO 205 > 100 µM | UO-31 97.7 µM

COc1ccc(C2CC(c3c(O)ccc4ccccc34)=NN2c2ccc([N+](=O)[O-])cc2[N+](=O)[O-])cc1OC (stereo not given)
inactive: SF-268 25.4 µM | LOX IMVI 25.9 µM | HOP-92 19.4 µM | U-251 17.6 µM | OVCAR-8 5.32 µM | SF-295 12.2 µM | NCI-H522 2.46 µM | Hs-578T 19.4 µM | HCT-116 15.8 µM | MDA-MB-231 20.9 µM | 786-0 29 µM | PC-3 11.5 µM | EKVX 14 µM | T47D 6.25 µM | RXF 393 24.4 µM | Malme-3M 17.4 µM | TK-10 24.3 µM | SNB-75 20.7 µM | COLO 205 22.3 µM | UO-31 9.25 µM
